Legend:
Format in all cases: in vivo
rice (Oryza sativa) = assay: Test B flooded paddy test, visual plant response rating 0-100; details: 250 g ai/ha, Flood, applied to paddy water, evaluated after 13 days
How it was run: (§1)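 Visual scores versus untreated controls were recorded 13 days after treatment of greenhouse-held plants. At the 2-leaf stage, pots were flooded 3 cm above the soil surface and compounds added straight to the water.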

[1] = test system: barnyardgrass (Echinochloa crusgalli); assay: as above; details: 250 g ai/ha, Flood, applied to paddy water, evaluated after 13 days
How it was run: as §1

[2] = test system: sedge, umbrella (small-flower umbrella sedge, Cyperus difformis); assay: as above; details: 250 g ai/ha, Flood, applied to paddy water, evaluated after 13 days
How it was run: as §1

[3] = test system: ducksalad (Heteranthera limosa); assay: as above; details: 250 g ai/ha, Flood, applied to paddy water, evaluated after 13 days
How it was run: as §1

[4] = test system: horseweed (Erigeron canadensis); assay: Test A postemergence application, visual injury rating 0-100
How it was run: (§2)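 Loam-sand pots got test material in surfactant-containing solvent, either as a directed soil spray before emergence or on plants at the one- to two-leaf stage. Visual injury (0-100) was read after ten greenhouse days.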

[5] = test system: oat, wild (wild oat, Avena fatua); assay: as above
How it was run: as §2

corn (Zea mays) [6] = assay: as above
How it was run: as §2

[7] = test system: ryegrass, Italian (italian ryegrass, Lolium multiflorum); assay: as above
How it was run: as §2

[8] = test system: ragweed (common ragweed, Ambrosia artemisiifolia); assay: as above
How it was run: as §2

[9] = test system: galium (catchweed bedstraw, Galium aparine); assay: as above
How it was run: as §2

[10] = test system: barnyardgrass (Echinochloa crus-galli); assay: as above
How it was run: as §2

soybean (Glycine max) [11] = assay: as above
How it was run: as §2

[12] = test system: wheat (Triticum aestivum); assay: as above
How it was run: as §2

[13] = test system: green foxtail (Setaria viridis); assay: as above
How it was run: as §2

kochia (Bassia scoparia) [14] = assay: as above
How it was run: as §2

[15] = test system: blackgrass (Alopecurus myosuroides); assay: as above
How it was run: as §2

[16] = test system: oat, wild (wild oat, Avena fatua); assay: Test A preemergence soil spray, visual injury rating 0-100; details: 10 days
How it was run: as §2

corn (Zea mays) [17] = assay: as above; details: 10 days
How it was run: as §2

[18] = test system: ryegrass, Italian (italian ryegrass, Lolium multiflorum); assay: as above; details: 10 days
How it was run: as §2

[19] = test system: ragweed (common ragweed, Ambrosia artemisiifolia); assay: as above; details: 10 days
How it was run: as §2

[20] = test system: barnyardgrass (Echinochloa crus-galli); assay: as above; details: 10 days
How it was run: as §2

soybean (Glycine max) [21] = assay: as above; details: 10 days
How it was run: as §2

[22] = test system: wheat (Triticum aestivum); assay: as above; details: 10 days
How it was run: as §2

[23] = test system: green foxtail (Setaria viridis); assay: as above; details: 10 days
How it was run: as §2

[24] = test system: palmer (palmer amaranth, palmer pigweed, Amaranthus palmeri); assay: as above; details: 10 days
How it was run: as §2

kochia (Bassia scoparia) [25] = assay: as above; details: 10 days
How it was run: as §2

[26] = test system: blackgrass (Alopecurus myosuroides); assay: as above; details: 10 days
How it was run: as §2

[27] = 62 g ai/ha, postemergence, 10 days, 0 = no effect, 100 = complete control
[28] = Postemergence, 16 g ai/ha, greenhouse 10 days, 0 no effect, 100 complete control
[29] = 62 g ai/ha, 0 = no effect, 100 = complete control

COC(=O)C1CC(NC(=O)C2(C(F)(F)F)CN(c3cc(F)cc(F)c3)C(=O)O2)C2CC12 (centres unmarked) [Compound 177]
Plant response rating, Rice (0 to 100 scale, 0 is no effect and 100 is complete control) (rice (Oryza sativa)): 90
Plant response rating, Barnyardgrass (0 to 100 scale, 0 is no effect and 100 is complete control) [1]: 90
Plant response rating, Sedge, Umbrella (0 to 100 scale, 0 is no effect and 100 is complete control) [2]: 80
Plant response rating, Ducksalad (0 to 100 scale, 0 is no effect and 100 is complete control) [3]: 75
Horseweed plant response rating (0-100) [4, 27]: 10
Horseweed plant response rating (0 to 100 scale) [4, 28]: 0
Oat, Wild plant response rating (0-100) [5, 27]: 90
Oat, Wild plant response rating (0 to 100 scale) [5, 28]: 70
Corn plant response rating (0-100) (corn (Zea mays) [6]; [27]): 90
Corn plant response rating (0 to 100 scale) (corn (Zea mays) [6]; [28]): 30
Ryegrass, Italian plant response rating (0-100) [7, 27]: 80
Ryegrass, Italian plant response rating (0 to 100 scale) [7, 28]: 70
Ragweed plant response rating (0-100) [8, 27]: 20
Ragweed plant response rating (0 to 100 scale) [8, 28]: 0
Galium plant response rating (0-100) [9, 27]: 80
Galium plant response rating (0 to 100 scale) [9, 28]: 90
Barnyardgrass plant response rating (0-100) [10, 27]: 80
Barnyardgrass plant response rating (0 to 100 scale) [10, 28]: 70
Soybean plant response rating (0-100) (soybean (Glycine max) [11]; [27]): 50
Soybean plant response rating (0 to 100 scale) (soybean (Glycine max) [11]; [28]): 20
Wheat plant response rating (0-100) [12, 27]: 90
Wheat plant response rating (0 to 100 scale) [12, 28]: 80
Foxtail, Green plant response rating (0-100) [13, 27]: 90
Foxtail, Green plant response rating (0 to 100 scale) [13, 28]: 30
Kochia plant response rating (0-100) (kochia (Bassia scoparia) [14]; [27]): 70
Kochia plant response rating (0 to 100 scale) (kochia (Bassia scoparia) [14]; [28]): 30
Blackgrass plant response rating (0-100) [15, 27]: 90
Blackgrass plant response rating (0 to 100 scale) [15, 28]: 80
Oat, Wild plant response rating ([16]; 16 g ai/ha, 0 to 100 scale): 0
Oat, Wild plant response rating (0-100) [16, 29]: 90
Corn plant response rating (corn (Zea mays) [17]; 16 g ai/ha, 0 to 100 scale): 10
Corn plant response rating (0-100) (corn (Zea mays) [17]; [29]): 10
Ryegrass, Italian plant response rating ([18]; 16 g ai/ha, 0 to 100 scale): 80
Ryegrass, Italian plant response rating (0-100) [18, 29]: 90
Ragweed plant response rating ([19]; 16 g ai/ha, 0 to 100 scale): 0
Ragweed plant response rating (0-100) [19, 29]: 20
Barnyardgrass plant response rating ([20]; 16 g ai/ha, 0 to 100 scale): 60
Barnyardgrass plant response rating (0-100) [20, 29]: 90
Soybean plant response rating (soybean (Glycine max) [21]; 16 g ai/ha, 0 to 100 scale): 0
Soybean plant response rating (0-100) (soybean (Glycine max) [21]; [29]): 0
Wheat plant response rating ([22]; 16 g ai/ha, 0 to 100 scale): 40
Wheat plant response rating (0-100) [22, 29]: 100
Foxtail, Green plant response rating ([23]; 16 g ai/ha, 0 to 100 scale): 90
Foxtail, Green plant response rating (0-100) [23, 29]: 100
Pigweed, Palmer plant response rating ([24]; 16 g ai/ha, 0 to 100 scale): 90
Pigweed, Palmer plant response rating (0-100) [24, 29]: 100
Kochia plant response rating (kochia (Bassia scoparia) [25]; 16 g ai/ha, 0 to 100 scale): 0
Kochia plant response rating (0-100) (kochia (Bassia scoparia) [25]; [29]): 80
Blackgrass plant response rating ([26]; 16 g ai/ha, 0 to 100 scale): 60
Blackgrass plant response rating (0-100) [26, 29]: 90
